The text below walks through data of patent US8163718B2, “Nucleoside analogues containing phosphonate or phosphonamide groups” (Gilead Sciences, Inc., priority 2008, dated 2012).

For orientation: GI50 means the concentration giving 50% growth inhibition. A higher GI50 goes with less potent growth inhibition.

Assay in all cases: Cytostatic cell culture assay (GI50), SRB
Format in all cases: cell-based
Holding throughout (conditions): 5 days incubation

Test [1] relates to A549. In outline:
(§1)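 Cells were seeded and incubated overnight at 37 °C, then exposed for 5 days at 37 °C to 5-fold serial dilutions of compound. After fixation with cold 10% TCA, cells were stained with 0.057% SRB, and the dye was solubilized in 10 mM Tris pH 10.5 and read at OD 500 nm. GI50 came from sigmoidal dose-response fits.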

Test [2] has as its system BT-549. The gist of the method: as §1
The test system of test [3] is Du-145. The gist of the method: as §1
For test [4], the system named is HCT-116. The gist of the method: as §1
Test [5] has as its system HCT-15. The gist of the method: as §1
In test [6] the test system is Hs-578. The gist of the method:
as §1

Test [7] relates to NCI-H23. The gist of the method: as §1
The subject of test [8] is PC3. In outline:
as §1

For `CCCOc1nc(N)nc2c1ncn2CCOCP(=O)(Oc1ccc(Cl)cc1)N1CCC[C@H]1C(=O)OCC` (stereo partly drawn) [Example 62], the GI50 is 1.87 µM in test [1] (Homo sapiens, A549, 120 h); 4.44 µM in test [2] (Homo sapiens, BT-549, 120 h); 0.001 µM in test [3] (Homo sapiens, DU-145, 120 h); 2.79 µM in test [4] (Homo sapiens, HCT-116, 120 h); 10 µM in test [5] (Homo sapiens, HCT-15, 120 h); 1.07 µM in test [6] (Hs578, 120 h). Besides, the GI50 in test [7] (Homo sapiens, NCI-H23, 120 h) was determined as 0.049 µM; in test [8] (Homo sapiens, PC-3, 120 h), 0.044 µM.
For `CCCCOC(=O)[C@@H]1CCCN1P(=O)(COCCn1cnc2c(OCCC)nc(N)nc21)N1CCC[C@H]1C(=O)OCCCC` [Example 25], the GI50 amounted to 0.45 µM in test [1] (Homo sapiens, A549, 120 h); 0.015 µM in test [2] (Homo sapiens, BT-549, 120 h); 0.002 µM in test [3] (Homo sapiens, DU-145, 120 h); 0.043 µM in test [4] (Homo sapiens, HCT-116, 120 h); 1.49 µM in test [5] (Homo sapiens, HCT-15, 120 h); 0.008 µM in test [6] (Hs578, 120 h). The GI50 in test [7] (Homo sapiens, NCI-H23, 120 h) amounted to 0.002 µM; in test [8] (Homo sapiens, PC-3, 120 h), 0.016 µM.
As to `CCCCOC(=O)[C@H](C)NP(=O)(COCCn1cnc2c(OC(C)C)nc(N)nc21)N[C@@H](C)C(=O)OCCCC` [Example 34], the GI50 in test [1] (Homo sapiens, A549, 120 h) is 0.041 µM; in test [2] (Homo sapiens, BT-549, 120 h) it was 0.195 µM; in test [3] (Homo sapiens, DU-145, 120 h) it was 0.004 µM; in test [4] (Homo sapiens, HCT-116, 120 h), 0.055 µM; in test [5] (Homo sapiens, HCT-15, 120 h), 2.65 µM; in test [6] (Hs578, 120 h) it was 0.031 µM. For the same molecule, the GI50 came to 0.005 µM in test [7] (Homo sapiens, NCI-H23, 120 h) and 0.021 µM in test [8] (Homo sapiens, PC-3, 120 h).
`COC(=O)[C@@H](C)NP(=O)(COCCn1cnc2c(OC)nc(N)nc21)N[C@H](C)C(=O)OC` [Example 32]: the GI50 was 11 µM in test [1] (Homo sapiens, A549, 120 h); more than 10 µM in test [2] (Homo sapiens, BT-549, 120 h); 1.49 µM in test [3] (Homo sapiens, DU-145, 120 h); 22 µM in test [4] (Homo sapiens, HCT-116, 120 h); more than 10 µM in test [5] (Homo sapiens, HCT-15, 120 h); 6.6 µM in test [6] (Hs578, 120 h). Besides, the GI50 was found to be 2.62 µM in test [7] (Homo sapiens, NCI-H23, 120 h) and 8 µM in test [8] (Homo sapiens, PC-3, 120 h).
Take `Nc1nc(OC2CCCCC2)c2ncn(CCOCP(=O)(O)O)c2n1` [Example 6, [2-(2-Amino-6-cyclohexyloxy-purin-9-yl)-ethoxymethyl]-phosphonic acid]: the GI50 in test [1] (Homo sapiens, A549, 120 h) is more than 10 µM; in test [2] (Homo sapiens, BT-549, 120 h), 17 µM; in test [3] (Homo sapiens, DU-145, 120 h) it was 0.439 µM; in test [4] (Homo sapiens, HCT-116, 120 h) it was more than 10 µM; in test [5] (Homo sapiens, HCT-15, 120 h), 13 µM; in test [6] (Hs578, 120 h) it was 11 µM. Besides, the GI50 was 6 µM in test [7] (Homo sapiens, NCI-H23, 120 h) and 3.01 µM in test [8] (Homo sapiens, PC-3, 120 h).
As to `CCOC(=O)[C@H](C)NP(=O)(COCCn1cnc2c(OC(C)C)nc(N)nc21)N[C@@H](C)C(=O)OCC` [Example 33], the GI50 in test [1] (Homo sapiens, A549, 120 h) is 0.762 µM; in test [2] (Homo sapiens, BT-549, 120 h), 0.423 µM; in test [3] (Homo sapiens, DU-145, 120 h), 0.018 µM; in test [4] (Homo sapiens, HCT-116, 120 h), 0.652 µM; in test [5] (Homo sapiens, HCT-15, 120 h), more than 10 µM; in test [6] (Hs578, 120 h), 0.243 µM. For the same molecule, the GI50 in test [7] (Homo sapiens, NCI-H23, 120 h) was determined as 0.019 µM; in test [8] (Homo sapiens, PC-3, 120 h), 0.19 µM.
Turning to `CCCCCOc1nc(N)nc2c1ncn2CCOCP(=O)(O)O` [Example 7, [2-(2-Amino-6-pentyloxy-purin-9-yl)-ethoxymethyl]-phosphonic acid], the GI50 in test [1] (Homo sapiens, A549, 120 h) came to 3.36 µM; in test [2] (Homo sapiens, BT-549, 120 h), 2.57 µM; in test [3] (Homo sapiens, DU-145, 120 h) it was 0.101 µM; in test [4] (Homo sapiens, HCT-116, 120 h), 2.45 µM; in test [5] (Homo sapiens, HCT-15, 120 h), 2.61 µM; in test [6] (Hs578, 120 h) it was 1.57 µM. Moreover, the GI50 is 0.596 µM in test [7] (Homo sapiens, NCI-H23, 120 h) and 0.595 µM in test [8] (Homo sapiens, PC-3, 120 h).
Turning to `CCCOc1nc(N)nc2c1ncn2CCOCP(=O)(N[C@H](C)C(=O)OC)N[C@H](C)C(=O)OC` [Example 18], the GI50 is 9.9 µM in test [1] (Homo sapiens, A549, 120 h); 7.6 µM in test [2] (Homo sapiens, BT-549, 120 h); 1.28 µM in test [3] (Homo sapiens, DU-145, 120 h); 9 µM in test [4] (Homo sapiens, HCT-116, 120 h); 24 µM in test [5] (Homo sapiens, HCT-15, 120 h); 9.1 µM in test [6] (Hs578, 120 h). Further, the GI50 in test [7] (Homo sapiens, NCI-H23, 120 h) was 2.33 µM; in test [8] (Homo sapiens, PC-3, 120 h) it was 5.4 µM.
`CCCCOC(=O)[C@H](C)NP(=O)(COCCn1cnc2c(OCCC)nc(N)nc21)Oc1ccccc1` (single isomer, unassigned) [Example 52b]: the GI50 in test [1] turned out to be 0.015 µM; in test [2] it was 0.1 µM; in test [3], 0.0003 µM; in test [4] it was 0.011 µM; in test [5] it was 0.517 µM; in test [6] it was 0.002 µM. Moreover, the figures for the GI50 in test [7] and in test [8] were 0.001 µM and 0.003 µM, respectively.
